Solubility data for 1 molecule are collected here from patent publication US9855259B2, “Processes of making and crystalline forms of a MDM2 inhibitor” (AMGEN INC., priority 2013, dated 2018).

Where a name gives a salt, the structure may show the parent alone.

A short description of this data set: room-temperature solubility in toluene. It is filed as physicochemical. The settings on record: organic solvent or mixture, 1-naphthalene sulfonate counterion.

Consider `C=CC[C@@]1(C)C[C@H](c2cccc(Cl)c2)[C@@H](c2ccc(Cl)cc2)[N+]2=C1OC[C@@H]2C(C)C` [oxoiminium salt, (3S,5S,6R,8S)-8-Allyl-6-(3-chlorophenyl)-5-(4-chlorophenyl)-3-isopropyl-8-methyl-2,3,5,6,7,8-hexahydrooxazolo[3,2-a]pyridin-4-ium naphthalene-1-sulfonate], for which the solubility is under 10000 µg/mL.

The term solubility denotes the dissolved amount per volume that the medium holds.
